Source: patent US20220008368A1, “METHODS AND COMPOSITIONS RELATED TO TARGETING FFAR2 AND ILC3 POPULATIONS FOR THE TREATMENT OF A GASTROINTESTINAL DISEASE” (PRESIDENT AND FELLOWS OF HARVARD COLLEGE, priority 2018, published 2022)
Read-outs that look alike come from different tables or passages of the source. *1 amine or outer side, *2 acyl side, *3 side chain or, on linkers, in order; H or OH if unused. Where a SMILES comes first, the peptide text is derived from it. Bridges are numbered along the chain shown (N, C = ends). [ ]: non-standard residue; d: D form. X1 = CC(=O)NC(C(=O)OC(C(C)C)C(N[*:1])C(=O)[*:2])C(O)C(C)C; PhLac = O=C(O)[CH](O)Cc1ccccc1; NMeT = CN[CH](C(=O)O)[CH](C)O; NMeA = CN[CH](C)C(=O)O; NMeDha = C=C(NC)C(=O)O

Tests used:
[1] = system: sorted colonic ILC3s; experiment: Flow analysis of intracellular signaling (AKT, p38, ERK, STAT3 phosphorylation) in sorted colonic ILC3s from WT mice; format: cell-based, mouse
Method: For analysis of intracellular signaling in ILC3s (Ibiza et al., 2016), sorted colonic ILC3s were rested for 2 hours in RPMI at 37° C.
AKT and STAT3 inhibition. Sorted colonic ILC3s were rested for 2 hours in RPMI at 37° C. For analysis of STAT3 phosphorylation, cells were incubated with […] AKT inhibitor VIII (VIII, Sigma-Aldrich) (Ibiza et al., 2016) or vehicle as a control (DMSO) for 1h at 37° C. before stimulation with the Ffar2 agonist (10 μM/ml dissolved in water, pH 7.4). To determine Il22 expression levels, cells were incubated with 10 μM AKT inhibitor VIII, 10 μM STAT3 inhibitor VI (S3I, Sigma-Aldrich) (Ibiza et al., 2016) or vehicle during overnight stimulation with Ffar2 agonist at 37° C.

[2] = system: sorted colonic ILC3s; experiment: Il22 mRNA expression in sorted colonic ILC3s (qRT-PCR); format: cell-based, mouse; settings: for Il22 expression upon Ffar2 activation with the Ffar2 agonist: overnight with Ffar2 agonist, AKT inhibitor VIII 10 μM, STAT3 inhibitor 10 μM
Method: RNA isolation and real-time quantitative PCR (qRT-PCR). For analysis of sorted colonic immune cell populations including ILC subsets and colonic ILC3s, RNA was isolated using the RNeasy Micro Kit (Qiagen) or RNeasy Mini Kit (Qiagen) according to the manufacturer's protocol. For analysis of colonic epithelial cells or colon tissues, cells or tissues were homogenized directly into Qiazol (Qiagen), and RNA was isolated via chloroform extraction. The quantity and quality of RNA was determined using a NanoDrop (Thermo Scientific). […] Quantitative real-time PCR was carried out on cDNA with SYBR FAST Universal qPCR Master Mix (KAPA Biosystems). Reactions were run on a Stratagene Mx3005P machine (Agilent Technologies). The expression of individual genes was normalized to housekeeping gene β-actin expression on the base of the ΔΔCt algorithm. Some results are shown as a fold induction relative to expression levels in colonic epithelial cells as indicated. AKT and STAT3 inhibition.

[3] = molecular target: T1, Ffar2 (Homo sapiens, UniProt O15552); settings: cited from earlier work; for agonism of Ffar2 among SCFAs: compared among acetate, propionate and butyrate
T1 sequence (O15552 1-330): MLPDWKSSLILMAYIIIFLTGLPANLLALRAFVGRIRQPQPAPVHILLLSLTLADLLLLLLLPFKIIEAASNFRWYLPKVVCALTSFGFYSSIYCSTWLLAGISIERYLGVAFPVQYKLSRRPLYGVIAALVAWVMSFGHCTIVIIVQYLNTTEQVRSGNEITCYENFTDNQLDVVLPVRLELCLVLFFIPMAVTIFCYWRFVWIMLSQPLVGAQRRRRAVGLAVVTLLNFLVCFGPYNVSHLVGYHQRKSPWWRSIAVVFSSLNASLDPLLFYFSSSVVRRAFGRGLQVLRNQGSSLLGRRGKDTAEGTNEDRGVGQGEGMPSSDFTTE

[4] = system: colonic ILC3s; experiment: Colonic RORγt+ ILC3s in germ-free WT mice fed Ffar2 agonist or sodium acetate; format: in vivo, mouse; settings: Ffar2 agonist 700 μM or sodium acetate 150 mM in drinking water, 1-2 weeks
Method: GPR43 agonist. […] SCFA intervention. […] WT mice received sodium chloride (150 mM). […] Flow cytometry.

[5] = system: sorted colonic ILC3s; experiment: In vitro BrdU incorporation in sorted colonic ILC3s; format: cell-based, mouse; settings: acetate 10 mM or propionate 10 mM with BrdU 10 μM overnight
[6] = system: colonic ILC3s; settings: WT mice, drinking water 2 weeks; acetate 150 mM, propionate 150 mM, butyrate 100 mM; control sodium chloride
Method: SCFA intervention. […] WT mice received sodium chloride (150 mM). […] Drinking water solutions were freshly prepared and changed every 5 days.
Isolation of colonic epithelial cells and immune cells. Colons were dissected and fat and blood vessels were removed. Colons were cut open longitudinally and washed with PBS to remove feces and debris, then incubated in PBS containing 5 mM EDTA, 0.145 mg/ml Dithiothreitol (Sigma-Aldrich), 3% FBS and 1% penicillin/streptomycin (P/S) for 15 min at 37° C. for 2 cycles. After being vortexed for 15s, the dissociated cells were collected as colonic epithelial cells. For the isolation of lamina propria immune cells, the remaining colonic tissues were washed twice in PBS, cut into 1 mm in length, and digested in RPMI 1640 containing 0.5 mg/ml collagenase D (Roche), 0.01 mg/ml DNase I (Roche), and 0.5 mg/ml Dispase (Stem Cell Technologies) for 30 min at 37° C. on a shaking platform. The digested tissues were passed through 70 μm strainers after being vigorously vortexed for 15s. Then, colonic immune cells were collected and resuspended in PBS with 1% fetal bovine serum and 1% penicillin-streptomycin solution (Corning) for flow cytometry analysis, FACSAria sorting or RNA extraction.
Flow cytometry. Single-cell suspensions were stained with a combination of fluorescently conjugated monoclonal antibodies. CD16/32 antibody (93; BioLegend) was used to block the non-specific binding to Fc receptors before surface staining. Cells were stained with Fixable yellow dead cell stain kit (Invitrogen) for the detection of live/dead cells before staining of the cell surface. All antibodies were purchased from BioLegend unless otherwise specified. For surface marker staining, antibodies to the following mouse proteins were used: CD45 (30-F11), CD90.2 (53-2.1), lineage markers (17A2/RB6-8C5/RA3-6B2/Ter-119/M1/70), CCR6 (29-21.17), NKp46 (29A1.4), CD11b (M1/70), CD11c (N418), Gr-1 (RB6-8C5), MHC class II (M5/114.15.2), NK1.1 (PK136), KLRG1 (2F1), CD3c (145-2C11), CD4 (RM4.5). […]

[7] = system: Peyer's patch ILC3s; settings: cited from earlier work
[8] = system: C57BL/6 Rag2−/− mice; experiment: T cell-transfer colitis model; format: in vivo, mouse; settings: Ffar2 agonist or sodium propionate for 6 weeks
Method: GPR43 agonist. […] SCFA intervention. […] WT mice received sodium chloride (150 mM). […] Histology. Colons were cleaned with PBS prior to fixation in 4% PFA and then processed by routine paraffin embedding, sectioning and H&E staining. Colitis scores were determined by a pathologist (J. N. G.), who was blinded to the experimental parameters. Each of the four histologic parameters was scored as absent (0), mild (1), moderate (2), or severe (3): mononuclear cell infiltration, polymorphonuclear cell infiltration, epithelial hyperplasia, and epithelial injury. The scores for the parameters were summed to generate the cumulative histologic colitis score as previously described^60, 61. For the DSS-induced model, cumulative histologic scores were also quantified as to the percentage involvement by the disease process: […] (3) 30-50%; (4) >50% and presented as histologic colitis scores^62 as follows: (cumulative score*involvement)+cumulative score. T cell-transfer colitis model. Splenic T cells (CD3^+CD4^+CD25^-CD45RB^hi) were sorted from C57BL/6J WT mice and injected i.p. into C57BL/6J Rag2^-/- mice (5×10^5 cells/mouse). […] Mice were monitored weekly for weight loss and morbidity for 6-8 weeks as per the protocol's experimental endpoint guidelines and sacrificed at the terminal time point of 6 weeks post injection of splenic […].

[9] = WT ILC3s, propionate 10 mM, 1 h

O=c1[nH]c2ccccc2n1C1CCN(Cc2ccc(-c3nc4cc5[nH]cnc5cc4nc3-c3ccccc3)cc2)CC1 [AKT inhibitor (VIII)]
STAT3 activation upon Ffar2 activation with the Ffar2 agonist ([1]; AKT inhibitor VIII 1 h before stimulation with Ffar2 agonist): impaired
Il22 expression upon Ffar2 activation with the Ffar2 agonist ([2]; PTX 500 ng/mL, YM-254890 1 mM): decreased 11-22, but to a lesser extent

Cc1ccc(S(=O)(=O)OCC(=O)Nc2ccc(C(=O)O)c(O)c2)cc1 [STAT3 inhibitor (S31)]
Il22 expression upon Ffar2 activation with the Ffar2 agonist ([2]; PTX 500 ng/mL, YM-254890 1 mM): impaired
Il22 expression upon Ffar2 activation with the Ffar2 agonist ([2]; PTX 500 ng/mL, YM-254890 1 mM, listed as STAT3 inhibitor): decreased

C=C1C(=O)NC(C)C(=O)N(C)C(C)C(=O)NC(C(OC(=O)C(NC(C)=O)C(O)C(C)C)C(C)C)C(=O)N(C)C(C(C)OC)C(=O)OC(C)C(NC(C)=O)C(=O)OC(Cc2ccccc2)C(=O)N1C (stereo not drawn) [YM-254890] (Ac-T[PhLac][NMeDha]A[NMeA][X1][NMeT](Me); ester 1-C; configuration not given here)
Il22 expression upon Ffar2 activation with the Ffar2 agonist ([2]; PTX 500 ng/mL, YM-254890 1 mM): abolished
Il22 expression upon activation with propionate ([2]; propionate 10 mM overnight, PTX 500 ng/mL, YM-254890 1 mM, ERK inhibitor 10 μM): decreased IL22 transcripts to a lesser extent

CC(=O)[O-].[Na+] [sodium acetate]
Il22 mRNA expression in sorted ILC3s cultured with ligand [2]: did not alter
agonism of Ffar2 among SCFAs [3]: far more potent activators of Ffar2
colonic ILC3 numbers [4]: increased
percentage of BrdU+ ILC3s [5]: increased
colonic ILC3 frequency and number [6]: increased

CCCC(=O)[O-].[Na+] [sodium butyrate]
effect on Peyer's patch ILC3s [7]: suppress
colonic ILC3 frequency and number [6]: did not change

CCC(=O)[O-].[Na+] [sodium propionate]
phosphorylation of AKT, p38, ERK and STAT3 ([1]; WT ILC3s, propionate 10 mM, 30 min): did not induce
pSTAT3+ ILC3s [1, 9]: did increase
share of ILC3s that were pSTAT3+ [1, 9]: 1%-1.5%
percentage of pERK+ ILC3s ([1]; WT ILC3s, propionate 10 mM, 1 h compared with shorter time): comparable
pERK level ([1]; WT ILC3s, propionate 10 mM, 1 h versus 30 min): did induce a higher pERK
colitis (histologic colitis score) [8]: ameliorated colitis similar to the effect of sodium propionate
Il22 mRNA expression in sorted ILC3s cultured with ligand ([2]; acetate 10 mM, propionate 10 mM or Ffar2 agonist 10 mM): to a lesser extent, propionate increased
potency for Ffar2 compared with the synthetic Ffar2 agonist [3]: lower potency
agonism of Ffar2 among SCFAs [3]: far more potent activators of Ffar2
percentage of BrdU+ ILC3s [5]: did not
colonic ILC3 frequency and number [6]: increased
